These results are taken from patent US20190269703A1, “MATERIALS AND METHODS FOR TREATING CHRONIC COUGH” (Mayo Foundation for Medical Education and Research, priority 2016, published 2019).

For one series, the system named is postnasal drip. The experiment in a line: Treatment of postnasal drip: nasal spray delivered into the nasal cavity, patient responses evaluated. As to conditions: 34 μg/spray diphenhydramine in combination with an anticholinergic and a glucocorticosteroid (mometasone furoate 1.7 mg/5 mL, ipratropium bromide 1 mg/5 mL, diphenhydramine 1.7 mg/5 mL); two sprays to each nostril daily; evaluated after 4 to 6 weeks. The class given is in vivo, human.

A short description of series [1]: Sedation / patient tolerance of the nasal spray in use. The following applies: 34 micrograms/spray (or 69 μg daily) to each nostril, triple combination nasal spray; 15,000 units dispensed. The class given is in vivo, human. The method, then:
A specially configured nasal atomizer having a large aerosol plume and a three inch stem was used to bypass the nasal valve area and deliver medication into the nasal cavity. Two sprays were administered to each nostril daily. Patient responses were evaluated after 4 to 6 weeks.
34 micrograms/spray (or 69 μg daily) to each nostril is […] less than the lowest dose (12.5 milligrams) of oral diphenhydramine.

Structures are written as SMILES.

Procedure for postnasal drip: A composition including mometasone furoate (1.7 mg/5 mL), ipratropium bromide (1 mg/5 mL), and diphenhydramine (1.7 mg/5 mL) was prepared. A specially configured nasal atomizer having a large aerosol plume and a three inch stem was used to bypass the nasal valve area and deliver medication into the nasal cavity. Two sprays were administered to each nostril daily. Patient responses were evaluated after 4 to 6 weeks.

Take `CN(C)CCOC(c1ccccc1)c1ccccc1` [Diphenhydramine, diphenhydramine]: in the series with postnasal drip, the arresting postnasal drip result was “effective”. Moreover, the sedation result in series [1] is “sedation has not been an issue”.
